Experimental data published in a melting point compilation (Tetko et al.; mined from patent text by program, amines drawn as free bases though some values may be those of a salt).

Compound	melting point
Cc1nc2ccc3c(c2o1)C(=CC#N)CC3	180 to 182 °C
O=C(NCCCCOc1ccc(-n2ccnc2)cc1)c1ccc(I)cc1	143 to 145 °C
CCN(CC)CCn1c2ccccc2c(=NNC(N)=S)c2ccccc21	154 to 156 °C
CCOC(=O)c1cc(OC2CCCCC2=O)[nH]n1 (stereo not drawn)	122 to 124 °C
CC(=O)OC1NC(=O)C2=C1CN=C(c1ccccc1Cl)c1cc(Cl)ccc12 (stereo not drawn)	172 to 174 °C
CC(C)Cc1c2c(nn1Cc1ccccc1)c(N)nc1ncccc12	232 to 235 °C
Cc1oc(-c2ccco2)nc1COc1ccc(COc2nn(Cc3ccccc3)cc2CO)cn1	94 to 95 °C
COC(=O)CCc1ccc(OCCSCCO)cc1	47 to 48 °C
CCN1C(=O)NCC1c1ccc(OC)c(OC2CC3CCC2C3)c1 (stereo not drawn)	149 to 153 °C
C[C@]1(COc2ccc(N3CCC(CCOCc4ccc(OC(F)(F)F)cc4)CC3)cc2)Cn2cc([N+](=O)[O-])nc2O1	205 to 207 °C
CC1CCN(C2=NCC(=O)N(C)c3ccccc32)CC1	106 to 108 °C
Fc1ccccc1-c1nc(Cl)nc2ccc(Cl)cc12	208 to 210 °C
CCCN(CCC)Cc1csc(-c2ncn3c2[C@@H]2CCN2C(=O)c2c(Cl)cccc2-3)n1	200 to 201 °C
Cc1cc(Br)cnc1CCCCNc1ncc(Cc2cccnc2)cc1[N+](=O)[O-]	82 to 84 °C
O=C(O)/C=C/c1ccc(-c2nc3c(=O)n(CC4CCCCC4)c(=S)n(CC4CCCCC4)c3[nH]2)cc1	> 300 °C
c1ccc(Oc2ccc(Nc3ncnc4cnc(N5CCCCC5)nc34)cc2)cc1	175 °C
CCOC(=O)C(=NO)C(=O)c1ccc(Br)cc1	149 °C
Cn1cncc1-c1cccc(Nc2ccc3ccccc3n2)c1	60 to 65 °C
O[C@H]1c2cc3ccccc3cc2[C@H](O)c2cc3ccccc3cc21	235 °C
Cc1c(-c2ccc3c(c2)NC(=O)C(C)O3)nc2ccccn12 (stereo not drawn)	216 to 217 °C
O=C(O)C=C(c1ccccc1)c1ccc([N+](=O)[O-])cc1	188 to 189 °C
CN1CCN(c2cnc3ccccc3n2)CC1	109 to 111 °C
CON=CC1=CCCN(C(=O)OCC(N)=O)C1	131 to 133 °C
O=[N+]([O-])c1cc(OCCCl)ccc1Cl	46 to 48 °C

Compound	melting point
COCCOC(=O)C1=C(C)NC(C)=C(C(=O)OC(C)C)C1c1ccsc1Cl (stereo not drawn)	123 to 124 °C
CCOCc1nc2c(c(C)c(C)n3nnnc23)n1CCNC(=O)Nc1ccccc1	> 250 °C
CCCCCCCCCCOc1ccc(Oc2cccc(C(=O)O)c2)cc1CCC(=O)O	102 to 104 °C
Oc1ccc(C2COC(c3c(F)cccc3F)=N2)cc1 (stereo not drawn)	145 to 147 °C
CN(CC(O)C(Cc1ccccc1)NC(=O)OC(C)(C)C)CC(O)C(Cc1ccccc1)NC(=O)OC(C)(C)C (stereo not drawn)	62 to 70 °C
COC1(O)C=C(O)C(C(O)C(=O)c2ccccc2)=CC1 (stereo not drawn)	192 to 193 °C
CN(C)C1CCN(c2cc3ccccc3c(=O)[nH]2)CC1	204 to 205 °C
N=C(N)NC(=O)OCc1ccccc1	120 to 122 °C
COC(=O)Cc1c(C)nc(SC)nc1O	200 °C
Cc1nnc2n1-c1sc(C#Cc3ccccc3)cc1C(c1ccccc1Cl)=NC2	215 to 217 °C
Cc1nc(N(C)c2cc(Cl)cc(Cl)c2)sc1-c1ccnc(Nc2ccc(N3CCOCC3)cc2)n1	216 to 218 °C
OCc1cnn2ccc3c(c12)CCO3	152 to 154 °C
COc1cc(-c2cc(-c3ccc(-c4c(Cc5ccccc5)sc5ccccc45)cc3)ccc2OCC(=O)O)cc(OC)c1OC	93 to 94 °C
Cc1c(-c2ccncc2)[nH]c(-c2ccncc2)c1C(=O)CC(C)C	199 to 201 °C
COCc1c(C(=O)OC)sc2nnsc12	123 to 124 °C
CN1Cc2cscc2Nc2ccccc21	110 to 112 °C
CC12CCC3C(CCC4CCCCC43C)C1CC(F)C2=O (stereo not drawn)	148 to 150 °C
O=c1ccc2cc(OCc3cn(-c4ccccc4Cl)nn3)ccc2o1	164 to 166 °C
COc1ccc2c(c1)cc(-c1nnn(Cc3cccc(OCc4ccc5ccccc5n4)c3)n1)c(=O)n2C	125 to 127 °C
OC(CN1CCNC1=S)c1cccc(F)c1 (stereo not drawn)	116 °C
COc1ccc(CS(=O)CC(=O)NO)cc1 (stereo not drawn)	160 °C
Nc1ncnc2[nH]c(=O)sc12	> 370 °C
CCCCCCCCCCCCCCOc1ccc(C(=O)OC)cc1OCCCCCCCCCCCCCC	50 to 51 °C
O=C=NCc1cccnc1	141 to 146 °C

Other lines, results leading:

melting point	Compound
103 to 104 °C	O=Cc1c(-c2cccc(C(F)(F)F)c2)sc2ccccc12
167 to 169 °C	COc1cc(C(=O)NS(=O)(=O)c2ccccc2)ccc1Cn1ncc2ccc(NC(=O)CC3CCCC3)cc21
185 to 186 °C	CC(=O)OC(OC(C)=O)c1ccc2occ(C#N)c(=O)c2c1
83 to 85 °C	CSc1ncnn1C[C@]1(c2ccc(F)c(F)c2)O[C@@H]1c1ccccc1C(F)(F)F (relative stereo)
228 to 230 °C	O=C1CCC(N2Cc3c(CNC(=O)c4ccccc4)cccc3C2=O)C(=O)N1 (stereo not drawn)
182 °C	NC(=O)C(Nc1ccccc1[N+](=O)[O-])c1c(Cl)cccc1Cl (stereo not drawn)
145 to 147 °C	CCCc1c(C(=O)OCC)nc2c(CCC)c3oc(C(=O)OCC)cc(=O)c3cc2c1Cl
172 to 173 °C	CC(C)(C)c1cc2c(c(C(=O)Nc3ccc(S(=O)(=O)C(F)(F)F)cc3Cl)c1O)CCC2
173 to 175 °C	Cc1sc(Cc2ccccc2)c(-c2ccc(-c3ccc(OS(=O)(=O)c4ccc(C(=O)O)c(O)c4)cc3)cc2)c1C
212 to 214 °C	O=Cc1ccc(-c2cc3c4c(c2)cc(F)n4C(=O)CNC3)cc1
40.5 to 41 °C	O=C1c2ccccc2COc2ccc(CCCOC(=O)C(F)(F)F)cc21
272 to 274 °C	O=C(O)C1=Cc2cc(Cl)c(Sc3ccccc3)cc2OC1C(F)(F)F (stereo not drawn)
92 to 93 °C	Cc1cc(C(=O)Nc2ccccc2)c(C)o1
85 to 86 °C	CCOc1nn(-c2ccc(C(F)(F)F)cn2)cc1CCCO
130 to 132 °C	Cc1cc2c3c(ccc2cc1C(=O)c1ccc(Cl)cc1)OC(=O)C3(C)C
100 °C	COc1cc2c(cc1OC)CN(CCCOc1ccc([N+](=O)[O-])cc1)CC2
170 to 171 °C	CN(Cc1cc(C(F)(F)F)cc(C(F)(F)F)c1)C(=O)c1oc(=O)c2ccc(Cl)cc2c1-c1ccccc1
95 to 97.5 °C	Cn1c(CC#N)ccc1C(=O)c1ccc(C(F)(F)F)cc1
270 °C	C=CC(=O)Nc1ccc2c(Nc3cccc(C)c3)ncnc2c1
178 to 179 °C	Cn1cc(C(=O)NCc2ccc(Cl)cc2)c(=O)c2cc(CN3CCCOCC3)ccc21
159 to 160 °C	O=C(O)C1(C(=O)Nc2cc(Cl)cc(Cl)c2)CCC1
160 to 166 °C	Cc1nccn1CC1CCc2c(c3ccccc3n2C)/C1=N/OC(=O)c1cccc(C#N)c1 (stereo not drawn)
153 °C	CN(c1cccc2cc(-c3nccs3)[nH]c12)S(=O)(=O)c1ccsc1C(C)(C)O
89 to 92 °C	CN1CCN(c2ccc(S(=O)(=O)c3cccc(F)c3)c(N)c2)CC1
108 °C	CC(C)(C)OC(=O)N1CCN(c2cncc(Cl)n2)CC1

melting point	Compound
264 to 267 °C	Cc1nc2cnccc2n1-c1ccc2c(c1)CC(C(=O)O)C2 (stereo not drawn)
131 to 133 °C	CCOC(=O)c1ccc(NC(=O)c2sc3ccc(OC)cc3c2OC(C)C)nc1
72 to 73 °C	CN(CC(=O)O)C(=S)c1ccc(Cl)cc1
134 to 142 °C	Cc1cccc2sc(Sc3ccc4c(c3)CC[C@H]3N(C)C(=O)CC[C@]43C)nc12
56 °C	COC(=O)c1ccc(Cl)c(C2(O)C(=O)N(Cc3ccc(OC)cc3OC)c3ccc(Cl)cc32)c1 (stereo not drawn)
112 to 115 °C	COc1ccc(S(=O)(=O)N2c3cc(F)ccc3-c3ccc(F)cc3C2C)c(OC)c1 (stereo not drawn)
248 to 249 °C	Cc1cc2nc(C(=O)NC(Cc3ccc(OCc4ccccc4)cc3)C(=O)O)cn2cc1-c1ccc(Cl)cc1 (stereo not drawn)
231 °C	O=C(O)c1ccc(-c2cc(O)c(SCCc3ccccc3)c(=O)o2)cc1
192 to 196 °C	CCN1CCN(CC(=O)NC2(c3cc4ccccc4o3)C(=O)Nc3cc(Cl)cc(Cl)c32)CC1 (single isomer, unassigned; (+))
> 280 °C	Cc1ccc(-c2[nH]nc3c2C(=O)c2c(NC(N)=O)cccc2-3)s1
122 to 124 °C	Cc1ccc2c(c1)C(O)(c1ccc3c(c1)OCO3)C(=O)N2Cc1ccc(Cl)cc1 (stereo not drawn)
> 300 °C	Cc1ccc2c(=O)cc(C(N)=O)oc2c1
219 to 221 °C	NS(=O)(=O)c1ccc(NN=Cc2ccc(Cl)cc2Cl)cc1
252 to 254 °C	NC(=O)c1c(N2CCN(Cc3ccccc3)CC2)nn2c(-c3cccc(C(F)(F)F)c3)ccnc12
90 to 98 °C	CCCNC(=O)C(C)Cc1ccc2c(CCC)cn(Cc3ccc(C(=O)O)cc3OC)c2c1 (stereo not drawn)
162 to 164 °C	O=C1N(Cc2ccc3nsnc3c2)c2ccccc2C12COc1cc3c(cc12)CCO3 (stereo not drawn)
241 to 250 °C	O=c1cc(-c2ccc3c(c2)CCCC3)[nH]c2ccccc12
65 °C	C[C@@H]1C[C@H](OC(=O)C(C)(C)Oc2ccc(C(=O)c3ccc(Cl)cc3)cc2)CC(C)(C)C1 (relative stereo)
65 to 67 °C	CCCN(CCC)C(=O)c1cc(C(=O)N[C@@H](Cc2cc(F)cc(F)c2)[C@H](O)CNCc2cccc(CC)c2)cc(-c2ncco2)c1
198 to 200 °C	CSc1cc2c(cc1C(F)(F)F)N(C(=O)Nc1cccc(C(=O)NCCN3CCOCC3)c1)CC2
137 to 139 °C	O=c1c(Cl)c(OCc2ccc(F)cc2F)ccn1Cc1ccc2c(c1)CCN2
178 to 179 °C	COc1ccc(C(=O)NC2CCCCC2)c2c1OCC2C(=O)OCc1ccccc1 (stereo not drawn)
211 to 212 °C	Cc1c[nH]c(-c2c(Cl)cc(C(F)(F)F)cc2Cl)n1
223 to 225 °C	Cc1c(N2CC[C@@H](N)[C@H](C)C2)c(F)cc2c(=O)c(C(=O)O)cn(C3CC3)c12 (relative stereo)
41 to 43 °C	O=C(NCCSCc1cccc(Cl)c1)c1c(F)cccc1F
